Values joined by “and” are separate entries in the source; they are usually repeats but may differ in a detail not shown here. Equal entries are not always repeated.
What was measured:
[1] = test system: T-24; assay: MTT cytotoxicity assay, T-24; type: cell-based, human
Experimental: (§1) The in vitro cytotoxicity of OD, 1–3 and the corresponding metal salts were determined by MTT assay towards a panel of human tumor cells including HepG2, T-24, BEL-7404, MGC80-3, SK-OV-3/DDP and normal HL-7702 cells. As the positive control, cisplatin was dissolved at a concentration of 1 mM in 0.154 M NaCl[32].
(§2) The human tumor cell lines (BEL-7404, HepG2, MGC80–3, T-24, SK-OV-3/DDP and HeLa cells) and the human normal liver cell line HL-7702 were obtained from Shanghai Cell Bank in Chinese Academy of Sciences. Cells were cultured in Dulbecco’s modified Eagle’s medium (DMEM) or RPMI-1640 medium, which supplemented with 10% fetal bovine serum (FBS) and 100 U/mL penicillin and streptomycin. Cells were cultured at 37 °C in a humidified atmosphere with 5% CO2/95% air. Tested compounds (2.0 mM) were prepared as DMSO stock solution before they were diluted to working concentrations by PBS buffer (containing 0.5% DMSO), while cisplatin dissolved in 0.9% sodium chloride solution was used as positive controls.
(§3) Cells in their logarithmic phase were seeded in 96-well plates with 5.5 × 10^3/180 μL per well for 24 h. Then 20 μL of compounds at various concentrations were added to each well to achieve final concentrations of 1.25, 2.5, 5.0, 10.0, and 20.0 μM. All the cells were incubated with test compounds for another 48 h before MTT assay. Control wells contained media with 0.5% DMSO. After 48 h of cultivation, 10 μL of MTT (5 mg/mL in PBS) was added to each well, and cells were incubated at 37 °C for 6 h. The contents in the wells were pipetted out carefully, and the formazan crystals formed were dissolved in 100 μL of DMSO, and the absorbance was measured by enzyme labeling instrument with 490 nm/630 nm double wavelength measurement. The IC50 value was defined as a drug concentration killing 50% cells in comparison with untreated controls, which was calculated by the Bliss method (n = 5). All tests were repeated in at least three independent trials.

[2] = test system: caspase-8; assay: Caspase-8 activation by flow cytometry (CaspGLOW); type: cell-based, human; conditions: HepG2, 1.0 μM, 24 h; control 1.8%
Experimental: (§4) Caspase family is closely related to the cell apoptosis via the mitochondrial pathway, especially caspases-3, -8 and -9. To better understand the antitumor mechanisms, it needs to confirm whether caspase-3, -8 and -9 are activated when the tumor cells are treated with 1–3.
(§5) The measurement of caspase-3, -8 and -9’s activities was performed by CaspGLOW fluorescein active caspase-3, -8 and -9 staining kit. HepG2 cells were treated with 1 μM 1–3 for 24 h, harvested at a density of 1 × 10^6 cells/mL, and then suspended in 300 μL volume with PBS. To the suspension, 1 μL of caspase-3 inhibitor (FITC-DEVD-FMK), caspase-8 inhibitor (FITC-IETD-FMK) or caspase-9 inhibitor (FITC-LEHD-FMK) was consequently added and incubated for 1 h at 37 °C in 5% CO2 incubator. The cells were then examined by a FACSAria II flow cytometer equipped with a 488 nm argon laser. The results were represented as the percent change on the activity compared with the control.

[3] = test system: BEL-7404; assay: MTT cytotoxicity assay, BEL-7404; type: cell-based, human
Experimental: as §1, §2, §3

[4] = Solution stability by HPLC; type: physicochemical; conditions: TBS; 0 and 24 h; mobile phase methanol/H2O 80/20
Experimental: The stability of 1–3 in Tris-HCl buffer solution (TBS, pH = 7.35, containing 1% DMSO) for 0, 12 and 48 h were primarily analyzed by means of UV-Vis spectroscopy, as shown in Figure S1.
The stability of 1–3 under physiological conditions ([…] buffer solution with pH value of 7.35, containing 1% DMSO), was carried out using UV-vis spectroscopy and HPLC. 1–3 were dissolved in DMSO at 1 × 10^−3 M, and then diluted by buffer solution. The UV-vis absorbance of these complexes at 0 h, 12 h and 48 h were measured, respectively. The solution stability of 3 was further confirmed by HPLC experiments. 3 in aqueous solution at 1.0 mg · mL^−1 was analyzed by HPLC at 0 h and 24 h respectively, with reversed-phase C18 column and methol/H2O (80:20) as mobile phase.

[5] = test system: SK-OV-3/DDP; assay: MTT cytotoxicity assay, SK-OV-3/DDP; type: cell-based, human; conditions: 48 h
Experimental: as §1, §2, §3

[6] = test system: caspase-9; assay: Caspase-9 activation by flow cytometry (CaspGLOW); type: cell-based, human; conditions: HepG2, 1.0 μM, 24 h; control 1.9%
Experimental: as §4, §5

[7] = test system: caspase-3; assay: Caspase-3 activation by flow cytometry (CaspGLOW); type: cell-based, human; conditions: HepG2, 1.0 μM, 24 h; control 4.2%
Experimental: as §4, §5

[8] = test system: HepG2 cells; assay: Comet assay for DNA damage; type: cell-based, human; design: unit not given here; conditions: HepG2, 1.0 μM, 24 h
Experimental: After the observation of significant S-phase arrest caused by 1–3, the study of DNA damage assay is necessary. The single cell gel electrophoresis technique (comet assay) is a simple, sensitive, reliable, and rapid method to detect DNA damage in eukaryotic cell[39]. As shown in Table 3 and Fig. 6, 1–3 at 1.0 μM induced DNA damage (fragmentation or unwinding) appeared as fluorescent comets with remarkable increase of tails size, especially for 3.
The comet assay is a simple method for measuring DNA strand breaks in cells. The comet assay reagent kit was purchased from Trevigen, and the experiment was carried out according to the manufacturer’s instructions. After treatment with OD and 1–3 at 1.0 μM, HepG2 cells were harvested and suspended at 1 × 10^6 Hep-G2 cells/mL in PBS. The cells suspension was mixed with melted LM agarose at a ratio of 1:10 (v/v). An aliquot (75 μL) of the mixture was immediately pipetted onto the slide (Comet Slide TM). After refrigeration for 30 min, the slide was immersed in pre-chilled lysis solution and left on ice for 60 min, followed by immersing in freshly prepared alkaline solution (300 mM NaOH, 1 mM EDTA, pH > 13) for 60 min on ice in darkness. After DNA unwinding, the slide was subjected to alkaline solution for electrophoresis in a Savant ps 250 system set at 300 mA and 1 volt/cm for 30 min. After electrophoresis, the slide was rinsed with distilled H2O, fixed in 70% ethanol for 5 min and air-dried overnight. DNA was stained with SYBR Green I (Trevigen) and visualized under a fluorescence microscope (Nikon, Eclipse E600).

[Zn(OD)2(H2O)2] (ClO4)2 [Complex 3]
inhibitive ratio ([1]; T-24, 20 μmol/L, 48 h): 84.16±0.76%
IC50 ([1]; T-24, 48 h, MTT): 510 ± 170 nM
proportion of activated caspase-8 [2]: 41.5%
inhibitive ratio ([3]; BEL-7404, 20 μmol/L, 48 h): 61.00±0.19%
IC50 ([3]; BEL-7404, 48 h, MTT): 12600 ± 450 nM
stability in solution (HPLC chromatograms) [4]: no obvious changes of HPLC chromatograms
IC50 ([5]; SK-OV-3/DDP, MTT): 570 ± 70 nM
inhibitive ratio ([5]; SKOV-3/DDP, 20 μmol/L): 70.80±1.69%
proportion of activated caspase-9 [6]: 32.6%
proportion of activated caspase-3 [7]: 36.9% and 36.5%
Comet length [8]: 119.12 ± 6.59
Olive tail moment [8]: 22.67 ± 3.76
Tail length [8]: 58.67 ± 9.14
Tail moment [8]: 30.46 ± 6.98

— PMC5402304, “Oxoaporphine Metal Complexes (Co^II, Ni^II, Zn^II) with High Antitumor Activity by Inducing Mitochondria-Mediated Apoptosis and S-phase Arrest in HepG2” (Scientific Reports, 2017)
